In brackets after ≈: the same amount, converted by molar mass.
Assays:
[1] = tested on: panel of aerobic and anaerobic Gram-positive bacteria; assay: organism not typed; format: cell-based
C. beijerinckii B504 = assay: MIC test, anaerobes; format: cell-based; conditions: Clostridium beijerinckii, B504, 24 h; read-out: Minimal Inhibition Concentration (MIC) C. beijerinckii B504
Protocol: (§1) The resveratrol derivatives were serially diluted in cMHB (BD Difco) in 96-well microplates. Plates were then inoculated with the indicator bacteria at a final concentration of 5 × 10^5 CFU/mL and incubated at 37 °C for 20 h. In the case of the anaerobic bacteria (Clostridium and Clostridioides), the test was performed following the recommendation of CLSI for anaerobes[77] but using RCM medium instead of cMHB. The cultures were cultivated inside an anaerobic chamber at 37 °C for 24 h. All the tests were performed in triplicate.

C. ihumii AP5 = assay: MIC test, anaerobes; format: cell-based; conditions: 24 h; read-out: Minimal Inhibition Concentration (MIC) C. ihumii AP5
Protocol: as §1

C. botulinum CECT551 = assay: microbe, parasite or virus in culture; format: cell-based; conditions: Clostridium botulinum, CECT551, 24 h, read-out: Minimal Inhibition Concentration (MIC) C. botulinum CECT551
C. perfringens CECT376 = assay: microbe, parasite or virus in culture; format: cell-based; conditions: Clostridium perfringens, CECT376, 24 h, read-out: Minimal Inhibition Concentration (MIC) C. perfringens CECT376
C. tetani CECT4629 = assay: microbe, parasite or virus in culture; format: cell-based; conditions: Clostridium tetani, CECT4629, 24 h, read-out: Minimal Inhibition Concentration (MIC) C. tetani CECT4629
B. cereus ATCC10987 = assay: microbe, parasite or virus in culture; format: cell-based, Bacillus cereus; conditions: Bacillus cereus, ATCC10987, 20 h, read-out: Minimal Inhibition Concentration (MIC) B. cereus ATCC10987
B. cereus ATCC14579 = assay: microbe, parasite or virus in culture; format: cell-based, Bacillus cereus; conditions: Bacillus cereus, ATCC14579, 20 h, read-out: Minimal Inhibition Concentration (MIC) B. cereus ATCC14579
E. faecium LMG16003 [2] = assay: Combined action with antibiotics (MIC reduction, checkerboard FICI); format: cell-based
S. aureus LMG8224 = assay: as above; format: cell-based, Staphylococcus aureus; conditions: for MIC of antibiotic in combination with RES: RES at 4 μM; for FICI, antibiotic with 15 / FICI, antibiotic with 17: fractional inhibitory concentration index, EUCAST, * means relevant FICI values
S.aureus LMG8224 = assay: microbe, parasite or virus in culture; format: cell-based, Staphylococcus aureus; conditions: Staphylococcus aureus, LMG8224, 20 h, read-out: Minimal Inhibition Concentration (MIC) S.aureus LMG8224
S.aureus LMG10147 = assay: microbe, parasite or virus in culture; format: cell-based, Staphylococcus aureus; conditions: Staphylococcus aureus, LMG10147, 20 h, read-out: Minimal Inhibition Concentration (MIC) S.aureus LMG10147
S.aureus LMG15975 = assay: microbe, parasite or virus in culture; format: cell-based, Staphylococcus aureus; conditions: Staphylococcus aureus, LMG15975, 20 h, read-out: Minimal Inhibition Concentration (MIC) S.aureus LMG15975
C. difficile CECT531 = assay: microbe, parasite or virus in culture; format: cell-based, Clostridioides difficile; conditions: Clostridioides difficile, CECT531, 24 h, read-out: Minimal Inhibition Concentration (MIC) C. difficile CECT531
E. faecalis V583 = assay: microbe, parasite or virus in culture; format: cell-based, Enterococcus faecalis; conditions: Enterococcus faecalis, V583, 20 h, read-out: Minimal Inhibition Concentration (MIC) E. faecalis V583
E. faecium LMG16003 [3] = assay: microbe, parasite or virus in culture; format: cell-based; conditions: Enterococcus faecium, LMG16003, 20 h, read-out: Minimal Inhibition Concentration (MIC) E. faecium LMG16003
[4] = fractional inhibitory concentration index, EUCAST, * means relevant FICI values

Compound: CC(C)(C)[Si](C)(C)Oc1cc(/C=C/c2ccc(O)cc2)cc(O[Si](C)(C)C(C)(C)C)c1 [compound 18]
- antibacterial activity against the Gram-positive panel [1]: not active or displayed very low antibacterial activity

Compound: CC(C)(C)[Si](C)(C)Oc1ccc(/C=C/c2cc(O)cc(O[Si](C)(C)C(C)(C)C)c2)cc1 [compound 19]
- MIC (C. beijerinckii B504): 32 µM (≈ 14.6 µg/mL)
- MIC (C. ihumii AP5): 128 µM (≈ 58.5 µg/mL)
- MIC (C. botulinum CECT551): 53.3 ± 10.6 µM (≈ 24.3 µg/mL)
- MIC (C. perfringens CECT376): 128 µM (≈ 58.5 µg/mL)
- MIC (C. tetani CECT4629): 5.3 ± 1.3 µM (≈ 2.42 µg/mL)
- antibacterial activity against the Gram-positive panel [1]: not active or displayed very low antibacterial activity

Compound: CCOc1cc(O)cc(/C=C/c2ccc(O)cc2)c1 [compound 10]
- MIC (B. cereus ATCC10987): 128 µM (≈ 32.8 µg/mL)
- MIC (B. cereus ATCC14579): 128 µM (≈ 32.8 µg/mL)

Compound: NCC[C@H](O)C(=O)N[C@@H]1C[C@H](N)[C@@H](O[C@H]2O[C@H](CN)[C@@H](O)[C@H](O)[C@H]2O)[C@H](O)[C@H]1O[C@H]1O[C@H](CO)[C@@H](O)[C@H](N)[C@H]1O [Ami, amikacin]
- MIC of antibiotic alone (Ab) (E. faecium LMG16003 [2]): >32 µM
- MIC of antibiotic in combination with 15 (S. aureus LMG8224; 15 at 2 μM): 2 ± 0 µM
- MIC of antibiotic in combination with 15 (S. aureus LMG8224; 15 at 4 μM): 0.5 ± 0 µM
- MIC of antibiotic in combination with 17 (S. aureus LMG8224; 17 at 2 μM): 3.3 ± 0.5 µM
- MIC of antibiotic in combination with 17 (S. aureus LMG8224; 17 at 4 μM): 0.8 ± 0.1 µM
- MIC of antibiotic in combination with RES (S. aureus LMG8224): 8 ± 0 µM
- MIC of antibiotic alone (Ab) (S. aureus LMG8224): 8 ± 0 µM
- FICI, antibiotic with 15 (S. aureus LMG8224): 0.31
- FICI, antibiotic with 17 (S. aureus LMG8224): 0.60

Compound: CCCCCCCC(=O)OC[C@H]1O[C@@H](Oc2cc(/C=C/c3ccc(OC)cc3)cc(OC)c2)[C@H](O)[C@@H](O)[C@@H]1O [compound 28]
- MIC (B. cereus ATCC10987): 128 µM (≈ 69.7 µg/mL)
- MIC (B. cereus ATCC14579): 128 µM (≈ 69.7 µg/mL)
- MIC (S.aureus LMG8224): 128 µM (≈ 69.7 µg/mL)
- MIC (S.aureus LMG10147): 128 µM (≈ 69.7 µg/mL)
- MIC (S.aureus LMG15975): 128 µM (≈ 69.7 µg/mL)
- MIC (C. beijerinckii B504): 32 µM (≈ 17.4 µg/mL)
- MIC (C. ihumii AP5): 64 µM (≈ 34.9 µg/mL)
- MIC (C. botulinum CECT551): 26.6 ± 5.3 µM (≈ 14.5 µg/mL)
- MIC (C. difficile CECT531): 85.3 ± 21.3 µM (≈ 46.5 µg/mL)
- MIC (C. perfringens CECT376): 128 µM (≈ 69.7 µg/mL)
- MIC (C. tetani CECT4629): 16 µM (≈ 8.71 µg/mL)
- antibacterial activity against the Gram-positive panel [1]: weak antibacterial activity

Compound: COc1cc(O)cc(/C=C/c2ccc(O[C@H]3O[C@@H](C(=O)O)[C@H](O)[C@@H](O)[C@@H]3O)cc2)c1 [compound 29]
- antibacterial activity against the Gram-positive panel [1]: did not show antibiotic activity

Compound: O=S(=O)(O)Oc1ccc(/C=C/c2cc(O)cc(OS(=O)(=O)O)c2)cc1 [compound 7, Resveratrol 3,4′-disulfate]
- antibacterial activity against the Gram-positive panel [1]: did not show antibiotic activity

Compound: CC(C)[Si](Oc1ccc(/C=C/c2cc(O[Si](C(C)C)(C(C)C)C(C)C)cc(O[Si](C(C)C)(C(C)C)C(C)C)c2)cc1)(C(C)C)C(C)C [compound 22]
- antibacterial activity against the Gram-positive panel [1]: not active or displayed very low antibacterial activity

Compound: CN[C@H](CC(C)C)C(=O)N[C@H]1C(=O)N[C@@H](CC(N)=O)C(=O)N[C@H]2C(=O)N[C@H]3C(=O)N[C@H](C(=O)N[C@H](C(=O)O)c4cc(O)cc(O)c4-c4cc3ccc4O)[C@H](O)c3ccc(c(Cl)c3)Oc3cc2cc(c3O[C@@H]2O[C@H](CO)[C@@H](O)[C@H](O)[C@H]2O[C@H]2C[C@](C)(N)[C@H](O)[C@H](C)O2)Oc2ccc(cc2Cl)[C@H]1O [vancomycin, reference compound]
- MIC (B. cereus ATCC10987): 6 ± 2 µM (≈ 8.7 µg/mL)
- MIC (E. faecalis V583): 9.8 ± 2.7 µM (≈ 14.2 µg/mL)
- MIC (E. faecium LMG16003 [3]): > 32 µM
- MIC (S.aureus LMG8224): 10.7 ± 2.7 µM (≈ 15.5 µg/mL)
- MIC (C. difficile CECT531): 1.25 ± 0.75 µM (≈ 1.81 µg/mL)
- MIC (C. perfringens CECT376): 0.18 ± 0.06 µM (≈ 0.261 µg/mL)

Compound: bacitracin
- MIC of antibiotic in combination with 15 (E. faecium LMG16003 [2]; 15 at 4 μM): 16 ± 0 µM
- MIC of antibiotic in combination with 15 (E. faecium LMG16003 [2]; 15 at 8 μM): 0.3 ± 0.2 µM
- MIC of antibiotic in combination with 17 (E. faecium LMG16003 [2]; 17 at 2 μM): 32 ± 0 µM
- MIC of antibiotic in combination with 17 (E. faecium LMG16003 [2]; 17 at 4 μM): 16 ± 0 µM
- MIC of antibiotic in combination with RES (E. faecium LMG16003 [2]; RES at 8 μM): >32 µM
- MIC of antibiotic alone (Ab) (E. faecium LMG16003 [2]): >32 µM
- FICI, antibiotic with 15 (E. faecium LMG16003 [2]; [4]): 0.27*
- FICI, antibiotic with 17 (E. faecium LMG16003 [2]; [4]): 0.75*
- MIC of antibiotic in combination with 15 (S. aureus LMG8224; 15 at 2 μM): 26.6 ± 3.7 µM
- MIC of antibiotic in combination with 15 (S. aureus LMG8224; 15 at 4 μM): 4 ± 0 µM
- MIC of antibiotic in combination with 17 (S. aureus LMG8224; 17 at 4 μM): 6.6 ± 0.9 µM
- MIC of antibiotic in combination with RES (S. aureus LMG8224): >32 µM
- MIC of antibiotic alone (Ab) (S. aureus LMG8224): >32 µM
- FICI, antibiotic with 15 (S. aureus LMG8224): 0.31*
- FICI, antibiotic with 17 (S. aureus LMG8224): 0.41*
